PubChem BioAssay (NCI)
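Interpolation was linear, between the two tested concentrations surrounding the appropriate level; five concentrations were tested over 48 hours in 96-well plates. TGI denotes the concentration required for complete inhibition of growth.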

Key:
Assay in all cases: NCI-60 cell line screen, 48 h
LOX IMVI melanoma = test system: LOX IMVI melanoma
DU-145 prostate = test system: DU-145 prostate
SR leukemia = test system: SR leukemia
786-0 renal = test system: 786-0 renal
HS 578T breast = test system: HS 578T breast
MOLT-4 leukemia = test system: MOLT-4 leukemia
LXFL 529 NSCLC = test system: LXFL 529 NSCLC
OVCAR-8 ovarian = test system: OVCAR-8 ovarian
T-47D breast = test system: T-47D breast
M19-MEL melanoma = test system: M19-MEL melanoma
MDA-N = test system: MDA-N
OVCAR-3 ovarian = test system: OVCAR-3 ovarian
HOP-92 NSCLC = test system: HOP-92 NSCLC
HT29 colon = test system: HT29 colon
XF 498 CNS = test system: XF 498 CNS
EKVX NSCLC = test system: EKVX NSCLC
A549 NSCLC = test system: A549 NSCLC
SNB-19 CNS = test system: SNB-19 CNS
KM20L2 colon = test system: KM20L2 colon
TK-10 renal = test system: TK-10 renal
SN12C renal = test system: SN12C renal
MALME-3M melanoma = test system: MALME-3M melanoma
CCRF-CEM leukemia = test system: CCRF-CEM leukemia
NCI-H522 lung = test system: NCI-H522 lung
HOP-62 NSCLC = test system: HOP-62 NSCLC
K-562 leukemia = test system: K-562 leukemia
SK-MEL-5 melanoma = test system: SK-MEL-5 melanoma
SK-MEL-2 melanoma = test system: SK-MEL-2 melanoma
SF-295 CNS = test system: SF-295 CNS
HOP-18 NSCLC = test system: HOP-18 NSCLC
SF-268 CNS = test system: SF-268 CNS
PC-3 prostate = test system: PC-3 prostate
HCT-116 colon = test system: HCT-116 colon
MCF7 breast = test system: MCF7 breast
NCI-H460 lung = test system: NCI-H460 lung
SK-OV-3 ovarian = test system: SK-OV-3 ovarian
MDA-MB-231 breast = test system: MDA-MB-231 breast
HCC-2998 colon = test system: HCC-2998 colon
SW-620 colon = test system: SW-620 colon
OVCAR-4 ovarian = test system: OVCAR-4 ovarian
RXF 393 renal = test system: RXF 393 renal
CAKI-1 renal = test system: CAKI-1 renal
OVCAR-5 ovarian = test system: OVCAR-5 ovarian
SNB-78 CNS = test system: SNB-78 CNS
RPMI-8226 leukemia = test system: RPMI-8226 leukemia
SK-MEL-28 melanoma = test system: SK-MEL-28 melanoma
HCT-15 colon = test system: HCT-15 colon
M14 melanoma = test system: M14 melanoma
UACC-62 melanoma = test system: UACC-62 melanoma
KM12 colon = test system: KM12 colon
DMS 114 small cell lung = test system: DMS 114 small cell lung
IGROV1 ovarian = test system: IGROV1 ovarian
UO-31 renal = test system: UO-31 renal
DLD-1 colon = test system: DLD-1 colon
ACHN renal = test system: ACHN renal
COLO 205 colon = test system: COLO 205 colon
NCI-H226 lung = test system: NCI-H226 lung
NCI-H23 lung = test system: NCI-H23 lung
UACC-257 melanoma = test system: UACC-257 melanoma
HL-60(TB) leukemia = test system: HL-60(TB) leukemia
U251 CNS = test system: U251 CNS
DMS 273 small cell lung = test system: DMS 273 small cell lung
MDA-MB-435 = test system: MDA-MB-435
SF-539 CNS = test system: SF-539 CNS
A498 renal = test system: A498 renal
SNB-75 CNS = test system: SNB-75 CNS

CCOCC(=O)N[C@H]1CCc2cc(OC)c(OC)c(OC)c2-c2ccc(OC)c(=O)cc21 was tested, and the TGI (LOX IMVI melanoma) was over 100 µM, the TGI (DU-145 prostate) was 0.107 µM and the TGI (SR leukemia) was over 100 µM. The TGI (786-0 renal) was over 100 µM, the TGI (HS 578T breast) was over 100 µM and the TGI (MOLT-4 leukemia) was over 52.7 µM. The TGI (LXFL 529 NSCLC) was over 100 µM, the TGI (OVCAR-8 ovarian) was 17 µM and the TGI (T-47D breast) was over 100 µM. The TGI (M19-MEL melanoma) was over 100 µM, the TGI (MDA-N) was under 0.0196 µM and the TGI (OVCAR-3 ovarian) was 0.0849 µM. The TGI (HOP-92 NSCLC) was 7.24 µM, the TGI (HT29 colon) was over 8.15 µM and the TGI (XF 498 CNS) was over 60 µM. For the same compound, the TGI (EKVX NSCLC) was over 100 µM, the TGI (A549 NSCLC) was over 100 µM and the TGI (SNB-19 CNS) was over 100 µM. It also gave a TGI (KM20L2 colon) of 0.0375 µM, a TGI (TK-10 renal) of over 100 µM and a TGI (SN12C renal) of over 100 µM. The TGI (MALME-3M melanoma) was over 100 µM, the TGI (CCRF-CEM leukemia) was over 100 µM and the TGI (NCI-H522 lung) was 0.0768 µM. For the same compound, the TGI (HOP-62 NSCLC) was over 100 µM, the TGI (K-562 leukemia) was over 100 µM and the TGI (SK-MEL-5 melanoma) was 0.36 µM. The TGI (SK-MEL-2 melanoma) was over 15.8 µM, the TGI (SF-295 CNS) was 0.379 µM and the TGI (HOP-18 NSCLC) was over 100 µM. The TGI (SF-268 CNS) was over 100 µM, the TGI (PC-3 prostate) was over 100 µM and the TGI (HCT-116 colon) was 10.7 µM. The TGI (MCF7 breast) was over 100 µM, the TGI (NCI-H460 lung) was over 16.7 µM and the TGI (SK-OV-3 ovarian) was 15 µM. It also gave a TGI (MDA-MB-231 breast) of over 100 µM, a TGI (HCC-2998 colon) of 5.27 µM and a TGI (SW-620 colon) of over 100 µM. It also gave a TGI (OVCAR-4 ovarian) of over 100 µM, a TGI (RXF 393 renal) of over 100 µM and a TGI (CAKI-1 renal) of 30.1 µM. It also gave a TGI (OVCAR-5 ovarian) of over 100 µM, a TGI (SNB-78 CNS) of over 100 µM and a TGI (RPMI-8226 leukemia) of over 100 µM. The TGI (SK-MEL-28 melanoma) was over 100 µM, the TGI (HCT-15 colon) was 19.1 µM and the TGI (M14 melanoma) was 20.2 µM. For the same compound, the TGI (UACC-62 melanoma) was over 100 µM, the TGI (KM12 colon) was 0.0334 µM and the TGI (DMS 114 small cell lung) was 0.0289 µM. It also gave a TGI (IGROV1 ovarian) of over 100 µM, a TGI (UO-31 renal) of over 100 µM and a TGI (DLD-1 colon) of over 100 µM. The TGI (ACHN renal) was over 100 µM, the TGI (COLO 205 colon) was 0.0205 µM and the TGI (NCI-H226 lung) was 2.52 µM. For the same compound, the TGI (NCI-H23 lung) was 0.178 µM, the TGI (UACC-257 melanoma) was over 100 µM and the TGI (HL-60(TB) leukemia) was 0.101 µM. For the same compound, the TGI (U251 CNS) was 8.9 µM, the TGI (DMS 273 small cell lung) was over 100 µM and the TGI (MDA-MB-435) was under 0.0196 µM. For the same compound, the TGI (SF-539 CNS) was 0.0328 µM and the TGI (A498 renal) was 8.87 µM.

With NC1=NC(c2ccccc2)CC(c2cc(Cl)ccc2O)=N1 (stereo not given) the TGI (LOX IMVI melanoma) was 29.5 µM, the TGI (SR leukemia) was 36.6 µM and the TGI (786-0 renal) was 32.5 µM. For the same compound, the TGI (MOLT-4 leukemia) was 33.9 µM, the TGI (LXFL 529 NSCLC) was 28.3 µM and the TGI (OVCAR-8 ovarian) was 29.8 µM. It also gave a TGI (SNB-75 CNS) of 31.7 µM, a TGI (M19-MEL melanoma) of 29.5 µM and a TGI (OVCAR-3 ovarian) of 31.6 µM. For the same compound, the TGI (HOP-92 NSCLC) was 33.5 µM, the TGI (HT29 colon) was 32.1 µM and the TGI (XF 498 CNS) was 33.7 µM. For the same compound, the TGI (EKVX NSCLC) was 29.5 µM, the TGI (A549 NSCLC) was 29 µM and the TGI (SNB-19 CNS) was 30.7 µM. It also gave a TGI (KM20L2 colon) of 31.8 µM, a TGI (TK-10 renal) of 40.5 µM and a TGI (SN12C renal) of 26.9 µM. For the same compound, the TGI (MALME-3M melanoma) was 38 µM, the TGI (CCRF-CEM leukemia) was 51.8 µM and the TGI (NCI-H522 lung) was 29 µM. It also gave a TGI (HOP-62 NSCLC) of 30.2 µM, a TGI (K-562 leukemia) of 40.8 µM and a TGI (SF-295 CNS) of 31 µM. The TGI (HOP-18 NSCLC) was 35.6 µM, the TGI (SF-268 CNS) was 30.8 µM and the TGI (HCT-116 colon) was 27.6 µM. The TGI (NCI-H460 lung) was 29.3 µM, the TGI (SK-OV-3 ovarian) was 33 µM and the TGI (HCC-2998 colon) was 29.4 µM. The TGI (SW-620 colon) was 27 µM, the TGI (OVCAR-4 ovarian) was 35.8 µM and the TGI (RXF 393 renal) was 32.9 µM. For the same compound, the TGI (CAKI-1 renal) was 30.1 µM, the TGI (OVCAR-5 ovarian) was 34.6 µM and the TGI (SNB-78 CNS) was 42.1 µM. For the same compound, the TGI (RPMI-8226 leukemia) was 41 µM, the TGI (SK-MEL-28 melanoma) was 33.5 µM and the TGI (M14 melanoma) was 30.5 µM. The TGI (UACC-62 melanoma) was 30.4 µM, the TGI (KM12 colon) was 26.9 µM and the TGI (DMS 114 small cell lung) was 25.6 µM. It also gave a TGI (IGROV1 ovarian) of 42.1 µM, a TGI (UO-31 renal) of 29.2 µM and a TGI (DLD-1 colon) of 25.9 µM. It also gave a TGI (ACHN renal) of 29.4 µM, a TGI (COLO 205 colon) of 33.7 µM and a TGI (NCI-H226 lung) of 37.8 µM. The TGI (NCI-H23 lung) was 29.4 µM, the TGI (UACC-257 melanoma) was 35.7 µM and the TGI (HL-60(TB) leukemia) was 40.1 µM. The TGI (U251 CNS) was 29.9 µM, the TGI (DMS 273 small cell lung) was 25.6 µM and the TGI (SF-539 CNS) was 28.5 µM. It also gave a TGI (A498 renal) of 34.5 µM.
